Laboratory results taken from PubChem BioAssay (NCI).
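Cells were grown in 96-well plates and exposed to each compound for 48 hours at five concentrations; endpoints were interpolated linearly between bracketing concentrations, or set to the highest concentration if not reached. TGI denotes the concentration required for complete inhibition of growth.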

Key:
Experiment in all cases: NCI-60 cell line screen, 48 h
A549 NSCLC = system: A549 NSCLC
ACHN renal = system: ACHN renal
CCRF-CEM leukemia = system: CCRF-CEM leukemia
COLO 205 colon = system: COLO 205 colon
DU-145 prostate = system: DU-145 prostate
EKVX NSCLC = system: EKVX NSCLC
HCC-2998 colon = system: HCC-2998 colon
HL-60(TB) leukemia = system: HL-60(TB) leukemia
IGROV1 ovarian = system: IGROV1 ovarian
KM12 colon = system: KM12 colon
MOLT-4 leukemia = system: MOLT-4 leukemia
OVCAR-5 ovarian = system: OVCAR-5 ovarian
PC-3 prostate = system: PC-3 prostate
RXF 393 renal = system: RXF 393 renal
SF-268 CNS = system: SF-268 CNS
SF-539 CNS = system: SF-539 CNS
SK-MEL-2 melanoma = system: SK-MEL-2 melanoma
SN12C renal = system: SN12C renal
SW-620 colon = system: SW-620 colon
TK-10 renal = system: TK-10 renal

Structure (SMILES): CCOC(=O)c1sc2nc(SC)nc(Nc3ccc4c(c3)OCCCO4)c2c1N
- TGI (A549 NSCLC): > 100 µM
- TGI (ACHN renal): > 100 µM
- TGI (CCRF-CEM leukemia): > 100 µM
- TGI (COLO 205 colon): > 100 µM
- TGI (DU-145 prostate): > 100 µM
- TGI (EKVX NSCLC): > 100 µM
- TGI (HCC-2998 colon): > 100 µM
- TGI (HL-60(TB) leukemia): > 100 µM
- TGI (IGROV1 ovarian): > 100 µM
- TGI (KM12 colon): > 100 µM
- TGI (MOLT-4 leukemia): 8.25 µM
- TGI (OVCAR-5 ovarian): > 100 µM
- TGI (PC-3 prostate): > 100 µM
- TGI (RXF 393 renal): 41.7 µM
- TGI (SF-268 CNS): > 100 µM
- TGI (SF-539 CNS): > 100 µM
- TGI (SK-MEL-2 melanoma): > 100 µM
- TGI (SN12C renal): > 100 µM
- TGI (SW-620 colon): > 100 µM
- TGI (TK-10 renal): > 100 µM
